US20110130397A1, “PYRROLINONE COMPOUNDS AS INHIBITORS OF BACTERIAL PEPTIDYL TRNA HYDROLASE AND USES THEREOF” (priority 2006, published 2011)
Where “and” joins values, the source holds several entries; their conditions need not be identical. Identical values can stand only once.

test: Cytotoxicity (CellTiter 96 Aqueous Non-Radioactive Cell Proliferation Assay); format: cell-based; details: human, Huh7 cells
Description: Novel antibacterial peptidyl tRNA hydrolase inhibitors were identified using the MIC assay (inhibition ranged from 32-100%). The inhibitors were also bacteria specific, as evidenced by the low cytotoxicity observed for the human Huh7 cells (FIG. 4). Cytotoxicity was determined according to manufacturer's directions (CellTiter 96 Aqueous Non-Radioactive Cell Proliferation Assay, Promega).
Further data for representative compounds is set forth in Table 1 (MIC and cytotoxicity). Compounds were tested against S. aureus (ATCC 29213) and E. coli (BAS849—permeable) in the MIC assays. Certain compounds were also tested against other bacteria, including S. epidermis (ATCC 12228), E. faecium (ATCC 49624), and E. faecalis (ATCC 29212). Cytotoxicity was determined using Hu7 cells and Hep G2 cells. The MIC and cytotoxicity assays were performed as described above.

SMILES	CC50 [µM]
Cc1cc(C)c2nc(N3C(=O)C(O)=C(C(=O)c4ccc5c(c4)OCCO5)C3c3cccnc3)sc2c1 (stereo not shown) [Compound 126]	27.4
CCOc1cc(C2C(C(=O)c3cc4ccccc4o3)=C(O)C(=O)N2c2nc(C)c(C(C)=O)s2)ccc1O (stereo not shown) [Compound 13]	59.8
Cc1nnc(N2C(=O)C(O)=C(C(=O)c3ccc(OC(C)C)cc3)C2c2ccco2)s1 (stereo not shown) [Compound 33]	> 110
CCOc1cc(C2C(C(=O)c3cc4ccccc4o3)=C(O)C(=O)N2c2nnc(SCc3ccccc3F)s2)ccc1O (stereo not shown) [Compound 3]	> 83
CC(=O)C1=C(O)C(=O)N(c2nccs2)C1c1ccccc1 (stereo not shown) [Compound 22]	29.7
CCOC(=O)c1sc(N2C(=O)C(O)=C(C(=O)c3ccco3)C2c2ccco2)nc1C (stereo not shown) [Compound 45]	96.2
CCOC(=O)c1sc(N2C(=O)C(O)=C(C(=O)c3ccc(F)cc3)C2c2cccs2)nc1C (stereo not shown) [Compound 40]	62.9
CCc1ccc2nc(N3C(=O)C(O)=C(C(=O)c4ccco4)C3c3cccs3)sc2c1 (stereo not shown) [Compound 122]	58.2
CCOc1cc(C2C(C(=O)c3cc4ccccc4o3)=C(O)C(=O)N2c2nnc(SCc3ccccc3)s2)ccc1O (stereo not shown) [Compound 7]	> 85
COc1cc(C2C(C(=O)c3cc4ccccc4o3)=C(O)C(=O)N2c2nnc(C)s2)ccc1OCc1ccccc1 (stereo not shown) [Compound 9]	> 90
CCc1ccc2nc(N3C(=O)C(O)=C(C(=O)c4ccccc4)C3c3ccco3)sc2c1 (stereo not shown) [Compound 119]	10.8
Cc1nc(C)c(C(=O)C2=C(O)C(=O)N(c3nc4ccc(Cl)cc4s3)C2c2cccs2)s1 (stereo not shown) [Compound 49]	> 111
Cc1ccc(C2C(C(=O)c3ccc(Cl)cc3)=C(O)C(=O)N2c2nccs2)cc1 (stereo not shown) [Compound 59]	60.5

test: not given; details: not given

SMILES	melting point
CCOc1ccc2nc(N3C(=O)C(O)=C(C(=O)c4ccc(C)o4)C3c3sc4ccccc4c3C)sc2c1 (stereo not shown) [Compound 250]	227 to 228 °C
Cc1ccc(C(=O)C2=C(O)C(=O)N(Cc3nc4ccccc4[nH]3)C2c2ccc(F)cc2)o1 (stereo not shown) [Compound 567]	96 to 100 °C

Now from value to compound:

melting point	SMILES
176 to 178 °C	COc1ccccc1CC(=O)C1=C(O)C(=O)N(c2nc3c(Cl)cccc3s2)C1c1ccc(Cl)cc1 (stereo not shown) [Compound 489]
126 to 128 °C	Cc1ccc(C(=O)C2=C(O)C(=O)N(CCCNCCCN)C2c2ccc(F)cc2)o1 (stereo not shown) [Compound 491]
218 to 219 °C	CCOC(=O)C1=C(O)C(=O)N(c2nc3ccc(F)cc3s2)C1c1ccc(F)cc1 (stereo not shown) [Compound 425]
236 to 238 °C	CCc1ccc2nc(N3C(=O)C(O)=C(C(=O)c4ccc(C)o4)C3c3ccc(Cl)cc3)sc2c1 (stereo not shown) [Compound 133]
254 to 256 °C	Cc1ccc(C(=O)C2=C(O)C(=O)N(c3nc4ccc(Cl)cc4s3)C2c2ccccc2C)o1 (stereo not shown) [Compound 626]
220 to 221 °C	O=C(C1=C(O)C(=O)N(c2nc3c(Cl)cccc3s2)C1c1ccccc1F)C1CCC1 (stereo not shown) [Compound 573]
229 to 230 °C	COc1cc(C2C(C(=O)c3ccc(C)o3)=C(O)C(=O)N2c2nc3ccc(Cl)cc3s2)cc(OC)c1OC (stereo not shown) [Compound 605]
215 to 216 °C and 213 to 214 °C	Cc1ccc(C(=O)C2=C(O)C(=O)N(c3nc4ccc(Cl)cc4s3)C2c2cccc(OCc3ccccc3)c2)o1 (stereo not shown) [Compound 475]
195 to 196 °C	Cc1ccc(C(=O)C2=C(O)C(=O)N(C3CCCCC3)C2c2ccccc2F)o1 (stereo not shown) [Compound 432]
166 to 167 °C	CCOc1ccc2nc(N3C(=O)C(O)=C(C(=O)c4ccc(C)o4)C3C3CCCCC3)sc2c1 (stereo not shown) [Compound 185]
157 to 158 °C	Cc1ccc(C(=O)C2=C(O)C(=O)N(CCc3c[nH]c4ccccc34)C2c2ccc(F)cc2)o1 (stereo not shown) [Compound 594]
222 to 223 °C	Cc1ccc(C(=O)C2=C(O)C(=O)N(c3ncnc4[nH]ncc34)C2c2cccc([N+](=O)[O-])c2)o1 (stereo not shown) [Compound 225]
165 to 166 °C	Cc1ccc(C(=O)C2=C(O)C(=O)N(CCc3c[nH]c4ccccc34)C2c2ccc(Cl)cc2)o1 (stereo not shown) [Compound 595]
